The record followed here is ChEMBL document CHEMBL1133146, “Potent nonpeptide endothelin antagonists: synthesis and structure-activity relationships of pyrazole-5-carboxylic acids” (Bioorg Med Chem Lett, 2000).

In assay [1] the target is T1, Endothelin receptor type B (Rattus norvegicus, UniProt P21451).
T1 sequence (P21451 whole entry): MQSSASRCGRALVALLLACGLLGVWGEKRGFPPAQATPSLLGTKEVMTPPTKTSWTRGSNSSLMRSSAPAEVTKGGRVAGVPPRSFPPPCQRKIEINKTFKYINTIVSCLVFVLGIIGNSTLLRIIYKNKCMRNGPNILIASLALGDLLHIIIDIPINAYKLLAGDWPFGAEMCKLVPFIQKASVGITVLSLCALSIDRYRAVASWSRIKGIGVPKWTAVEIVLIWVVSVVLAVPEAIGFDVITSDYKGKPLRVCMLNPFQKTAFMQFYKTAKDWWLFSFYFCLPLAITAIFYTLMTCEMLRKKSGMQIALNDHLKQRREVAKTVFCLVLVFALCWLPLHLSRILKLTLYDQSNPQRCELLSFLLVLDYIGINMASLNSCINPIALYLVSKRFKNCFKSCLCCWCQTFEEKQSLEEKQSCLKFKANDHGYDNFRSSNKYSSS
The experiment in a line: In vitro binding affinity to endothelin B receptor in rat cerebellum. Type of assay: tissue-based.

Another assay concerns the target T2, Endothelin-1 receptor (Rattus norvegicus, UniProt P26684).
T2 sequence (P26684 whole entry): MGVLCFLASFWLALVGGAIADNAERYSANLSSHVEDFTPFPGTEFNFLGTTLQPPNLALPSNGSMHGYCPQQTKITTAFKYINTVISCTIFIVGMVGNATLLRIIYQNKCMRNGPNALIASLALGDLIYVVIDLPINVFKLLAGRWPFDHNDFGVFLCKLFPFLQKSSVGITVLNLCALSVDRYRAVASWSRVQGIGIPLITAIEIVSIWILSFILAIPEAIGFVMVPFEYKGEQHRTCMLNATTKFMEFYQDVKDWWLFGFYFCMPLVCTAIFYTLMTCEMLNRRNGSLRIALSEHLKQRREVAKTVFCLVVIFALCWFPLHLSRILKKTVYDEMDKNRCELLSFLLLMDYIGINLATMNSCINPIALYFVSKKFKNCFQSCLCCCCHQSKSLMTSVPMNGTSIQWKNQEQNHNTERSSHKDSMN
Put plainly: In vitro binding affinity to endothelin A receptor in rat heart ventricles.

Assay [2] deals with Endothelin receptor ET-A/ET-B (Rattus norvegicus). The experiment in a line: Ratio of ETA / ETB was determined; 22/1.
For assay [3] the test system is unchanged. Put plainly: Ratio of ETA / ETB was determined; 1/7.

In the case of `O=C(O)COc1ccccc1Cn1nc(-c2cccs2)c(Cc2cc3c(cc2Cl)OCO3)c1C(=O)O`, the values for the IC50 (in assay [1]; on Endothelin-1 receptor) were 4.6 nM and 28.3 nM, respectively.

Take `O=C(O)c1c(Cc2cc3c(cc2Cl)OCO3)c(-c2cccs2)nn1CC1CCC(C(=O)O)CC1` (stereo not drawn): the 50% inhibitory concentration (IC50) in assay [1] is 825 nM; at Endothelin-1 receptor, 0.81 nM.

As to `COc1ccc(-c2nn(CC3CCCCC3)c(C(=O)O)c2Cc2cc3c(cc2Cl)OCO3)cc1`, the IC50 in assay [1] worked out at 178 nM.

For `O=C(O)c1c(Cc2cc3c(cc2Cl)OCO3)c(-c2ccccc2)nn1CC12CC3CC(CC(C3)C1)C2`, the IC50 in assay [1] stood at 4.9 nM; on Endothelin-1 receptor, 3.4 nM.

Turning to `O=C(O)c1c(Cc2cc3c(cc2Cl)OCO3)c(-c2ccccn2)nn1CC1CCCCC1`, the 50% inhibitory concentration (IC50) was found to be 3.4 nM in assay [1] and 4.7 nM on Endothelin-1 receptor.

Take `O=C(O)c1c(Cc2cc3c(cc2Cl)OCO3)c(-c2ccccc2)nn1CC1CCCC(C(=O)O)C1` (stereo not drawn): the IC50 in assay [1] turned out to be 14.8 nM; on Endothelin-1 receptor, 2.5 nM.

Consider `O=C(O)c1c(Cc2cc3c(cc2Cl)OCO3)c(-c2ccco2)nn1CC1CCCCC1`, for which the IC50 in assay [1] stood at 9.8 nM; on Endothelin-1 receptor it was 1.3 nM.

Take `CCC(CC)Cn1nc(-c2ccccc2)c(Cc2cc3c(cc2Cl)OCO3)c1C(=O)O`: the results for the IC50 (in assay [1]; at Endothelin-1 receptor) were 31 nM and 15 nM, respectively.

Turning to `O=C(O)c1c(Cc2cc3c(cc2Cl)OCO3)c(-c2ccsc2)nn1CC1CCCCC1`, the results for the IC50 (in assay [1]; at Endothelin-1 receptor) were 3.2 nM and 1.1 nM, respectively.

For `O=C(O)c1c(Cc2cc3c(cc2Cl)OCO3)c(-c2ccccc2)nn1Cc1cccc(Cl)c1`, the values for the IC50 (in assay [1]; on Endothelin-1 receptor) were 11 nM and 17 nM, respectively.

As for `COc1ccc(Cn2nc(-c3ccccc3)c(Cc3cc4c(cc3Cl)OCO4)c2C(=O)O)c(OCC(=O)O)c1`, the concentration for half-maximal inhibition (IC50) was 4 nM in assay [1] and 89 nM on Endothelin-1 receptor. In addition, in assay [2], the Ratio is 22.

On to `O=C(O)COC1CCCCC1Cn1nc(-c2ccccc2)c(Cc2cc3c(cc2Cl)OCO3)c1C(=O)O` (stereo not drawn), for which the IC50 was determined as 3.2 nM in assay [1] and 20.5 nM at Endothelin-1 receptor.

As to `O=C(O)c1c(Cc2cc3c(cc2Cl)OCO3)c(-c2ccccc2)nn1CC1CCC(C(=O)O)CC1` (stereo not drawn), the IC50 in assay [1] is 810 nM; at Endothelin-1 receptor, 4.9 nM.

For the compound `O=C(O)c1ccc(Cn2nc(-c3ccccc3)c(Cc3cc4c(cc3Cl)OCO4)c2C(=O)O)cc1`, the IC50 in assay [1] was found to be 2040 nM; on Endothelin-1 receptor, 11 nM.

Take `O=C(O)c1cc2c(c(Cn3nc(-c4ccccc4)c(Cc4cc5c(cc4Cl)OCO5)c3C(=O)O)c1)OCOC2`: the IC50 in assay [1] worked out at 44 nM; on Endothelin-1 receptor, 2.5 nM.

For the compound `O=C(O)c1c(Cc2cc3c(cc2Cl)OCO3)c(-c2ccccc2)nn1CC1CCCCC1`, the IC50 in assay [1] is 2.6 nM; on Endothelin-1 receptor it was 3.6 nM.

As to `O=C(O)c1cc(Cn2nc(-c3ccccc3)c(Cc3cc4c(cc3Cl)OCO4)c2C(=O)O)on1`, the results for the IC50 (in assay [1]; at Endothelin-1 receptor) were 440 nM and 79 nM, respectively.

For `O=C(O)c1c(Cc2cc3c(cc2Cl)OCO3)c(-c2ccccc2)nn1CC1OCCO1`, the figures for the IC50 (in assay [1]; on Endothelin-1 receptor) were 953 nM and 70 nM, respectively.

On to `COc1ccc(Cn2nc(-c3cccs3)c(Cc3cc4c(cc3Cl)OCO4)c2C(=O)O)c(OCC(=O)O)c1`, for which the IC50 stood at 8.6 nM in assay [1] and 14.9 nM on Endothelin-1 receptor.

In the case of `O=C(O)c1c(Cc2cc3c(cc2Cl)OCO3)c(-c2cccs2)nn1CC1CCCC(C(=O)O)C1` (stereo not drawn), the IC50 in assay [1] is 9.9 nM; at Endothelin-1 receptor, 1.3 nM. Besides, the Ratio in assay [3] worked out at 7.

Consider `O=C(O)c1c(Cc2cc3c(cc2Cl)OCO3)c(-c2cccs2)nn1CC1CCCCC1`, for which the results for the IC50 (in assay [1]; at Endothelin-1 receptor) were 1.7 nM and 1.1 nM, respectively.

On to `O=C(O)c1c(Cc2cc3c(cc2Cl)OCO3)c(-c2ccccc2)nn1Cc1ccc(Cl)c(Cl)c1`, for which the concentration for half-maximal inhibition (IC50) in assay [1] was found to be 26 nM; on Endothelin-1 receptor, 34 nM.

As for `O=C(O)c1c(Cc2cc3c(cc2Cl)OCO3)c(-c2ccccc2)nn1C1CCCCC1`, the IC50 in assay [1] stood at 131 nM; at Endothelin-1 receptor, 226 nM.

Consider `O=C(O)COc1ccccc1Cn1nc(-c2ccccc2)c(Cc2cc3c(cc2Cl)OCO3)c1C(=O)O`, for which the IC50 worked out at 3.3 nM in assay [1] and 59 nM at Endothelin-1 receptor.

For `COc1cc(Cn2nc(-c3ccccc3)c(Cc3cc4c(cc3Cl)OCO4)c2C(=O)O)cc(OC)c1`, the IC50 stood at 9.7 nM in assay [1] and 28 nM at Endothelin-1 receptor.

In the case of `O=C(O)c1c(Cc2cc3c(cc2Cl)OCO3)c(-c2cccnc2)nn1CC1CCCCC1`, the figures for the IC50 (in assay [1]; on Endothelin-1 receptor) were 6.3 nM and 17.8 nM, respectively.
